From publication PMC10541198, “Specific quinone reductase 2 inhibitors reduce metabolic burden and reverse Alzheimer’s disease phenotype in mice” (The Journal of Clinical Investigation, 2023)
“And” between values parts separate entries of the source, which are not always exact repeats. Identical values can stand only once.

System: HCT116 cells
Experiment: H2DCFDA detection of cellular ROS
Assay type: cell-based, human
Settings: 20 μM, 3 hour, WT HCT116
Procedure: To establish direct target engagement and cell membrane permeability, a cellular thermal shift assay (CETSA) was carried out, using leading QR2is YB’s-537, 800, and 808. Following a 1 hour preincubation with 5 μM of the QR2is or vehicle, thermal aggregation curves (Taggs) of QR2 expressed in HEK293T were measured in increasing temperatures. All QR2is increased QR2 thermal stability compared with vehicle (Supplemental Figure 2A). Based on the Tagg curves we selected 73°C for isothermal dose-response fingerprint (IDTRF) experiments (Supplemental Figure 2B). The ITDRF allowed the relative quantification of the binding of each of the QR2is to QR2, measured as the EC50 (Figure 3A). […] We evaluated the safety of the QR2is using cell toxicity and viability assays. […] Cell viability was assessed by XTT assay in HEK239T cells, using a dose response, with 3- or 24-hour incubations of the leading QR2is. […] We then assessed WT HCT116 cells by immunoblot (Supplemental Figure 2, C and D), after being treated with YB-800 (2 μM) for 4 consecutive days. […]
The cells wer e har ves t ed a nd resuspended in 1% cl ear m e di um ( DM EM – with no phenol red, suppl em ent ed with 1% FBS, 1% L-Glutamine and 1% Penicillin-Streptomycin). […] The plate wa s then incubated in the dark at 37°C f or 3 h, before reading in a Tecan M200 Pro florescence microplate reader, using wavelengths Ex/Em = 485 nm / 535 nm . […]

## Cc1ccc(-c2cn3cccc(C)c3n2)cc1S(=O)(=O)N1CCC(C)CC1 [YB-800]
  ROS levels (replicates): 0.005141 and -0.1557 and -0.2104 and -0.08593 and -0.04485
